# Laboratory results reported in patent US20170042929A9, “Methods of Treating Neurological Diseases” (priority 2012, published 2017).
# Entries after “also recorded” stand apart in the source; their conditions may differ.
# Legend:
# [1] = tested on: hippocampal area CA1 of HET (SCN1A mSMEI) tissue; assay: Evoked fEPSP extracellular recordings in hippocampal slices, Schaeffer collateral stimulation (single pulse and 40 Hz trains); format: cell-based, mouse; settings: for population spike evoked by very low stimulation intensity: HET CA1; for fEPSP amplitude / synaptic excitability in HET tissue: HET hippocampus, ten pulse 40 Hz stimulation
# Procedure: (§1) Mice (P16-22) were anesthetized with isofluorane, decapitated, and the brains immediately removed. Transverse hippocampal sections (350 μm thickness) were cut in cold dissection solution (in mM: 2.6 KCl, 1.23 NaH2PO4, 24 NaHCO3, 0.1 CaCl2, 2 MgCl2, 205 sucrose, and 10 glucose) using a vibratome and were incubated for half an hour in normal artificial cerebrospinal fluid (ACSF; pH 7.3, 30° C.) containing (in mM) 130 NaCl, 1.2 MgSO4, 3.5 KCl, 1.2 CaCl2, 10 glucose, 2.5 NaH2PO4, 24 NaHCO3 aerated with 95% O2-5% CO2. After the incubation, slices were stained with Di-4ANNEPS (final dye concentration is 0.05 mg/ml) and left to recover for an additional hour at 30° C. (23). The slices were transferred to a submersion recording chamber (Warner Instr.) and continuously perfused (2 ml/min, at 30° C.) with the oxygenated ACSF.
# (§2) To characterize excitatory neural circuit activity, stimulating electrodes (concentric bipolar metal electrodes, 200 μm in diameter (FHC)) were placed on the Shaffer collaterals. fEPSP recordings were performed in hippocampal slices concurrently with the VSDI (FIGS. 1A-1E). Extracellular recording electrodes ([…], 0.9% saline) were placed in the CA1 radiatum layer. To monitor Di-4ANNEPS signals, the slices were illuminated either with Halogen (150 W; excitation 522-550 nm; emission—580 nm; dichroic—565 nm).
# Input-output (I-O) characteristics of fEPSPs were calculated using the same intensities of stimulation and incrementally (0.05 mA) raising them until the maximal responses or population spikes were obtained. 1-0 calculations were performed in stained and unstained slices to rule out a possible modulation of Di-4ANEPPS on GABA receptors (24). The responses from stained and unstained slices were not statistically different and were pooled together for the final analysis.
# (§3) To elicit short-term synaptic plasticity, Schaeffer collaterals were stimulated at 40 Hz frequency using 10 pulse (0.2 msec) trains. 40 Hz falls within the gamma frequency range and stimulation was repeated every 15 seconds with stimulus amplitude was set at the half of maximal fEPSP amplitude. fEPSP and VSDI optical data trials were synchronized.
# To modulate hippocampal hyperexcitability A1R agonist N6-cyclopentyladenosine (CPA) was used. N6-cyclopentyladenosine dissolved in DMSO was added to the bath ACSF solution. N6-cyclopentyladenosine took effect within 2 minutes of its application. 10 and 1 μM and 500, 100, 50, and 10 nM concentrations of CPA were tested. Since N6-cyclopentyladenosine acts through G-protein linked mechanisms, the washout of N6-cyclopentyladenosine was not possible in the current experiments. […] A1R […] DPCPX concentration was 200 nM. All drugs and dye were obtained from Sigma-Aldrich.
# [2] = tested on: hippocampal CA1 circuit of HET (SCN1A mSMEI) tissue; assay: Voltage-sensitive dye imaging (VSDI) of evoked neural activity propagation, FWHM; format: cell-based, mouse; settings: for abnormally wide circuit excitation, neural activity map (dF/Fmax) / spatial extent of neural signal propagation: 50 nM CPA; for abnormally wide circuit excitation, neural activity map (dF/Fmax): HET animal P19; for spatial extent of neural signal propagation: HET tissue
# Procedure: as §1
# A combination of in vitro electrophysiology (extracellular field potential recording and whole-cell patch clamp recordings) and fast voltage-sensitive dye imaging (VSDI) was used. All electrical recordings were performed using MCC 700 amplifiers (Axon Instruments). Electrical data was acquired at 4 KHz, digitized at 10 KHz using a Digidata DAC board and pClamp software. Optical data were recorded at 250 Hz with MiCam 02 (192×126 pixels, SciMedia USA).
# as §2, §3
# Optical and electrical data were analyzed using Brain Vision and pClamp softwares. To increase signal to noise ratio, data analysis in individual slices and during pharmacological manipulations was performed on the averages of fifteen files (electrical and optical). Standard electrophysiological analysis techniques were used to analyze fEPSP, EPSC, and IPSC characteristics. For optical analysis, 1060 msec of data were fitted with an approximately Gaussian curve (25) and full width at half maximal (FWHM) values over the distance of 950 micrometers from the stimulating electrode toward subicullum were calculated using BrainVision (SciMedia). FWHM here quantifies distance of neuronal signal propagation (or decay). FWHM calculations along the orthodromic neural activity propagation trajectory included 15 frames before and 194 frames after the 40 Hz train stimulation, and was spanning over the evoked signal as shown in FIGS. 4A-4D. All results are reported as grouped averages with standard error of the mean. Results from WT and HET, or treated versus untreated groups were compared using unpaired and paired t-tests, respectfully. A p<0.05 was regarded as statistically significant value.
# [3] = tested on: isolated mouse hippocampus; assay: Febrile seizure-like events (FSLE) in hyperthermia, extracellular recording in isolated hippocampus; format: cell-based; settings: CPA added immediately after the first FSLE, P18 isolated hippocampus
# Procedure: FIG. 9A: unfiltered extracellular recording traces (DC mode) of the typical repeated FSLEs in P18 isolated mouse hippocampus. […] Immediately after that CPA was added.
# Febrile seizure-like events (FSLE) emerge and terminate as sub-threshold bursts under conditions of hyperthermia at a temperature of about 39° C. in (FIGS. 6A-6C) while spontaneous inhibitory postsynaptic currents (IPSCs) evident at 32° C. (FIG. 6D) gradually diminish as the temperature increases (FIG. 6E). In hippocampal slices FSLEs emerged on the average at 38.5° C. in tissue from HET mice and at 40.5° C. in tissue from WT mice (FIGS. 7A-7B) where the FSLE durations was almost twice as long in HET tissue (FIG. 7C).
# [4] = tested on: SMEI mice (SCN1A HET); assay: Acute CPA treatment, hyperthermia-induced seizures in vivo; parameters: species or system mouse
# Procedure: (§4) The model of SMEI used in these studies is caused by a knock-in nonsense substitution (CgG to TgA in exon 21) made within a loop between segments 5 and 6. Transgenic mice were provided by Drs. K. Yamakawa and I. Ogiwara (RIKEN, Japan (14)). All of the experiments on the mice (C57BL/6/129) involved in this project were performed in accordance with animal protocols approved by the Institutional Animal Care and Use Committee of the University of Houston. Heterozygous (HET) and wild-type (WT) mice were used.
# [5] = tested on: SMEI mice (SCN1A HET); assay: Chronic CPA treatment (P11-P20), hyperthermia-induced seizures in vivo; parameters: species or system mouse
# Procedure: as §4
# The A1R agonist CPA has an acute effect on the control of hyperexcitable neural network, hyperthermia-induced seizure in vitro and in vivo. To investigate if the chronic treatment of mSMEI with CPA can have long-term effects on the rewiring of the neural circuit and FS threshold activity, CPA was injected into the SMEI mice twice a day for continuous 10 days during the critical activity-dependent period of development (P11-P20), and the effects were determined 24 hours and 10 days after the last injection.
# [6] = tested on: CA1 pyramidal cells of HET SMEI mice; assay: sEPSC and sIPSC whole-cell recordings after repeated CPA treatment; format: in vivo, mouse; settings: repeated CPA treatment P11-P20, HET+CPA vs HET+vehicle
# Procedure: For electrical whole-cell voltage-clamp recordings, borosilicate glass micropipettes (4-7 MΩ) were used containing (in mM): 116 Cesium gluconate, 6 KCl, 0.5 EGTA, 20 HEPES, 10 phosphocreatine, 0.3 NaGTP, 2 NaCl, 4 MgATP, and 0.3% Neurobiotin (pH 7.25, 295 mOsm) and 5 mM QX-314 (fast voltage-gated conductance blocker). Spontaneous inhibitory postsynaptic currents (IPSCs) and EPSCs were recorded in CA1 pyramidal cells. sIPSCs were recorded at −80 mV in the presence of APV (100 μM) and CNQX (40 μM). sEPSCs were recorded at −70 mV in the presence of inhibitory synaptic transmission blocker picrotoxin (50 μM). Amplitude and frequency of sEPSCs and sIPSCs were measured and compared between WT and HET. For IPSC calculations, activity was studied in three 20 second segments (twenty seconds apart) for each cell (N=8 HET, 6WT). Since EPSCs have lower frequency, two minute long segments were used for their analysis (N=6). Cumulative distribution of the amplitudes and inter-event interval (frequency) were plotted in Prism software. t-test analysis was used to compare IPSCs and EPSCs in HET and WT tissue. All recordings were performed at 32° C. temperature. […]
# [7] = tested on: SMEI seizures; settings: previously tested; cited from earlier work
# [8] = 50 nM CPA, listed as N6-cyclopentyladenosine
compound,measurement,setting,value
"OC[C@H]1O[C@@H](n2cnc3c(NC4CCCC4)ncnc32)[C@H](O)[C@@H]1O [CPA, N6-cyclopentyladenosine]",population spike evoked by very low stimulation intensity,[1]; 50 nM CPA,reduced this spike into a field EPSP response
same,population spike evoked by very low stimulation intensity,[1]; [8],reduced this spike into a fEPSP response; also recorded: effectively reduced this exaggerated response into fEPSP
same,fEPSP amplitude / synaptic excitability in HET tissue,[1]; 50 nM CPA,significantly reduced fEPSP; also recorded: significantly reduced hippocampal circuit hyperexcitability without blocking excitatory synaptic transmission
same,fEPSP amplitude / synaptic excitability in HET tissue,[1]; [8],"significantly reduced fEPSP trains; also recorded: significantly reducing synaptic excitability in HET tissues, without blocking synaptic transmission"
same,"short-term plasticity (STP), fEPSP amplitude ratios pulses #2-10 to #1","[1]; 50 nM CPA, HET vs HET+CPA, 40 Hz train",effected the short-term plasticity; also recorded: all statistically different
same,fEPSPs,[1]; 1 μM N6-cyclopentyladenosine in bath ACSF,completely eliminated fEPSPs
same,fEPSPs,[1]; 10 μM N6-cyclopentyladenosine in bath ACSF,completely eliminated fEPSPs
same,time until N6-cyclopentyladenosine took effect after its application,[1]; bath application in ACSF,≤ 2 min
same,"abnormally wide circuit excitation, neural activity map (dF/Fmax)",[2],reduced significantly; also recorded: reduced the abnormally wide circuit excitation
same,"abnormally wide circuit excitation, neural activity map (dF/Fmax)",[2]; listed as N6-cyclopentyladenosine,abnormally wide CA1 circuit activation was confined; also recorded: reduced the abnormally wide circuit excitation
same,spatial extent of neural signal propagation,[2]; 40 Hz train,significantly reduced the spatial extent of neural signal propagation
same,spatial extent of neural signal propagation,"[2]; 40 Hz train, listed as N6-cyclopentyladenosine",significantly reduced the spatial extent of neural signal propagation; also recorded: reduced propagation of the evoked signal
same,"FWHM, spread of the evoked activity","[2]; HET slices + 50 nM CPA, 40 Hz train, untreated HET 591±106 μm, N=6 slices",491±106 μm
same,epileptogenic activity (repeated FSLEs) in hyperthermia,[3],blocked epileptogenic activity in hyperthermia; also recorded: no repetitive FSLEs formed
same,seizure duration,"[4]; acute CPA 15 minutes before hyperthermia, vehicle 5.91±1.17 min",2.26 ± 0.43 min
same,seizure latency,"[4]; acute CPA 15 minutes before hyperthermia, vehicle 8.19±0.95 min",11.68 ± 0.70 min
same,seizure duration,"[4]; acute CPA i.p. 15 minutes prior, HET+saline 5.91±1.17 (figure legend)",2.26±0.43
same,seizure latency,"[4]; acute CPA i.p. 15 minutes prior, HET+saline 8.19±0.95 (figure legend)",11.68±0.70
same,seizure incidence,"[5]; chronic CPA twice a day P11-P20, 24 hours after the last treatment, vehicle 83.3%",53%
same,seizure incidence,"[5]; chronic CPA twice a day P11-P20, 10 days after the last treatment, vehicle 75%",43%
same,seizure duration,"[5]; chronic CPA, 24 hours after the last treatment, vehicle 3.980±0.6651",1.424±0.6904
same,seizure latency,"[5]; chronic CPA, 24 hours after the last treatment, vehicle 8.080±1.772",11.25±1.140
same,sIPSC amplitude,[6],does not cause significant change in sIPSCs; also recorded: no significant difference
same,sIPSC interval,[6],does not cause significant change in sIPSCs; also recorded: no significant difference
CCCn1c(=O)c2[nH]c(C3CCCC3)nc2n(CCC)c1=O [DPCPX],effect of DPCPX on the CPA-induced decrease of fEPSP amplitude,[1]; DPCPX 200 nM added to ACSF with 50 nM CPA,prevented N6-cyclopentyladenosine to decrease fEPSP amplitude; also recorded: N6-cyclopentyladenosine was ineffective at reducing fEPSP
NC(=O)N1c2ccccc2C=Cc2ccccc21 [carbamazepine],efficacy against SMEI seizures,[7],none of these agents worked reliably
Nc1nnc(-c2cccc(Cl)c2Cl)c(N)n1 [lamotrigine],efficacy against SMEI seizures,[7],none of these agents worked reliably
